Tests used:
Assay type in all cases: in vivo
Digitaria ciliaris [1] = test: Test Example 2: tests of treating shoots, herbicidal index; settings: 63 g/ha, sprayed onto shoots, four weeks after the treatment
Description: (§1) An emulsifiable concentrate for test was prepared in the same manner as that described in Test Example 1.
(§2) Seeds of each of Lolium multiflorum, Digitaria ciliaris, and Zea mays for feed were placed in a surface layer of soil filled in a pot with a size of 150 cm^2 and then lightly covered with soil. Subsequently, the pots were kept in a greenhouse to allow the plants to grow. When each of Lolium multiflorum and Digitaria ciliaris grew to a shoot height ranging from 2 to 4 cm, and Zea mays for feed grew to a shoot height ranging from 20 to 30 cm, the emulsifiable concentrate mentioned above was diluted with water so as to have a specified amount of the active ingredient, and then sprayed onto the shoot parts by means of a small-sized sprayer at an application rate of 250 L of water per hectare.
(§3) Four weeks after the treatment, the weight of the shoot part of the alive plant in the untreated plot and the treated plot with respect to each of Lolium multiflorum, Digitaria ciliaris, and Zea mays for feed was measured. The herbicidal index was calculated according to the calculation expression described below.
(§4) (4) Calculation Expression for Herbicidal Index Herbicidal index (%)=[(Weight of the shoot part of the alive plant in the untreated plot−Weight of the shoot part of the alive plant in the treated plot)/(Weight of the shoot part of the alive plant in the untreated plot)]×100
(§5) A diluted emulsifiable concentrate of the compound of A-2 was sprayed at a dosage of 63 g of the compound per hectare.
(§6) In addition, with respect to the compound (A) described in Patent Document 1, the same application as described above was carried out.

Lolium multiflorum [2] = test: as above; settings: 63 g/ha, sprayed onto shoots, four weeks after the treatment
Description: as §1, §2, §3, §4, §5, §6

Digitaria ciliaris [3] = test: Test Example 3: spraying onto shoots, herbicidal index; settings: sprayed onto shoots, three weeks after the treatment
Description: as §1
(§7) Seeds of each of Zea mays for feed, Alopecurus myosuroides, Lolium multiflorum, Avena sativa, Digitaria ciliaris, Setaria faberi, Abutilon theophrasti, and Amaranthus retroflexus were placed in a surface layer of soil filled in a pot with a size of 150 cm^2 and then lightly covered with soil. Subsequently, the pots were kept in a greenhouse to allow the plants to grow. When each of Alopecurus myosuroides, Lolium multiflorum, Avena sativa, Digitaria ciliaris, Setaria faberi, Abutilon theophrasti, and Amaranthus retroflexus grew to a shoot height ranging from 2 to 4 cm, and Zea mays for feed grew to a shoot height ranging from 20 to 30 cm, the emulsifiable concentrate mentioned above was diluted with water so as to have a specified amount of the active ingredient, and then sprayed onto the shoot parts by means of a small-sized sprayer at an application rate of 250 L of water per hectare.
(§8) Three weeks after the treatment, the weight of the shoot part of the alive plant in the untreated plot and the treated plot with respect to each plant was measured. The herbicidal index was calculated according to the calculation expression described below.
as §4
(§9) A diluted emulsifiable concentrate of the compound of A-2 was sprayed at a dosage of 250 g or 63 g of the compound per hectare.
as §6

Setaria faberi = test: as above; settings: sprayed onto shoots, three weeks after the treatment
Description: as §1, §7, §8, §4, §9, §6

Abutilon theophrasti = test: as above; settings: sprayed onto shoots, three weeks after the treatment
Description: as §1, §7, §8, §4, §9, §6

Lolium multiflorum [4] = test: as above; settings: sprayed onto shoots, three weeks after the treatment
Description: as §1, §7, §8, §4, §9, §6

Amaranthus retroflexus = test: as above; settings: sprayed onto shoots, three weeks after the treatment
Description: as §1, §7, §8, §4, §9, §6

Avena sativa = test: as above; settings: sprayed onto shoots, three weeks after the treatment
Description: as §1, §7, §8, §4, §9, §6

Alopecurus myosuroides = test: as above; settings: sprayed onto shoots, three weeks after the treatment
Description: as §1, §7, §8, §4, §9, §6

Zea mays for feed [5] = test: Test Example 2: tests of treating shoots, herbicidal index (crop); settings: 63 g/ha, sprayed onto shoots (crop, shoot height 20 to 30 cm), four weeks after the treatment
Description: as §1, §2, §3
(4) Calculation Expression for Herbicidal Index Herbicidal index (%)=[(Weight of the shoot part of the alive plant in the untreated plot−Weight of the shoot part of the alive plant in the treated plot)/(Weight of the shoot part of the alive plant in the untreated plot)]×100 […]

Zea mays for feed [6] = test: Test Example 3: spraying onto shoots, herbicidal index (crop); settings: sprayed onto shoots (crop, shoot height 20 to 30 cm), three weeks after the treatment
Description: as §1, §7, §8, §4, §9, §6

| Structure (SMILES) | Herbicidal index Digitaria ciliaris (Digitaria ciliaris [1]) [%] | Herbicidal index Lolium multiflorum (Lolium multiflorum [2]) [%] | Herbicidal index Digitaria ciliaris (Digitaria ciliaris [3]; 63 g ai/ha) [%] | Herbicidal index Digitaria ciliaris (Digitaria ciliaris [3]; 250 g ai/ha) [%] | Herbicidal index Setaria faberi (Setaria faberi; 63 g ai/ha) [%] | Herbicidal index Setaria faberi (Setaria faberi; 250 g ai/ha) [%] | Herbicidal index Abutilon theophrasti (Abutilon theophrasti; 63 g ai/ha) [%] | Herbicidal index Abutilon theophrasti (Abutilon theophrasti; 250 g ai/ha) [%] | Herbicidal index Lolium multiflorum (Lolium multiflorum [4]; 63 g ai/ha) [%] | Herbicidal index Lolium multiflorum (Lolium multiflorum [4]; 250 g ai/ha) [%] | Herbicidal index Amaranthus retroflexus (Amaranthus retroflexus; 63 g ai/ha) [%] | Herbicidal index Amaranthus retroflexus (Amaranthus retroflexus; 250 g ai/ha) [%] | Herbicidal index Avena sativa (Avena sativa; 63 g ai/ha) [%] | Herbicidal index Avena sativa (Avena sativa; 250 g ai/ha) [%] | Herbicidal index Alopecurus myosuroides (Alopecurus myosuroides; 63 g ai/ha) [%] | Herbicidal index Alopecurus myosuroides (Alopecurus myosuroides; 250 g ai/ha) [%] | Herbicidal index Zea mays for feed (Zea mays for feed [5]) [%] | Herbicidal index Zea mays for feed (Zea mays for feed [6]; 63 g ai/ha) [%] | Herbicidal index Zea mays for feed (Zea mays for feed [6]; 250 g ai/ha) [%] |
| --- | --- | --- | --- | --- | --- | --- | --- | --- | --- | --- | --- | --- | --- | --- | --- | --- | --- | --- | --- |
| Cn1ncc(-c2ccc(C(F)(F)F)cc2S(C)(=O)=O)c(O)c1=O [(A)] | 80 | 40 | 80 | 90 | 80 | 100 | 80 | 90 | 40 | 50 | 100 | 100 | 60 | 80 | 50 | 90 | 50 | 40 | 90 |
| Cn1ncc(-c2ccc(C(F)(F)F)c3c2CCCS3(=O)=O)c(O)c1=O [Compound A-2, 5-(1,1-dioxido-8-(trifluoromethyl)thiochroman-5-yl)-4-hydroxy-2-methylpyridazin-3(2H)-one] | 90 | 100 | 90 | 100 | 100 | 100 | 100 | 100 | 100 | 100 | 100 | 100 | 100 | 100 | 80 | 100 | 0 | 0 | 20 |

Source: patent publication US12256736B2, “Pyridazine compound and herbicide” (Nippon Soda Co., Ltd., priority 2019, dated 2025)
